Experimental findings from DBAASP are described below.

Holding throughout (experiment): ≥ marks a high value that may be exact or a test limit, other limits are often not marked, values filed in µg/mL are converted to µM
The test system of assay [1] is Escherichia coli ATCC 25726.
Assay [2] has as its system Staphylococcus aureus ATCC 25923.
The subject of assay [3] is Bacillus subtilis ATCC 23857.
The subject of assay [4] is Escherichia coli ATCC 25922.
Assay [5] relates to Bacillus subtilis CMCC 63501.
Assay [6] relates to Enterococcus faecalis ATCC 29212.
In the next assay the test system is Escherichia coli UB1005.
In assay [7] the test system is Pseudomonas aeruginosa ATCC 27853.
The test system of assay [8] is Salmonella enterica subsp. enterica serovar Pullorum C79-13.
The subject of assay [9] is Salmonella enterica subsp. enterica serovar Typhimurium C77-31.
The test system of assay [10] is Staphylococcus aureus ATCC 29213.
Assay [11] has as its system Staphylococcus aureus ATCC 43300.
Assay [12] has as its system Staphylococcus epidermidis ATCC 12228.
In assay [13] the test system is Klebsiella pneumoniae ATCC 700603.
For assay [14], the system named is Escherichia coli ATCC 8739.
Assay [15] relates to Acinetobacter baumannii ATCC 19606.
The test system of assay [16] is Bacillus subtilis ATCC 6633.
Assay [17] deals with Staphylococcus aureus ATCC 6538.

Converted amounts (≈) assume the structure as drawn.

One may read the MIC as the lowest concentration found to suppress growth. Higher therefore signals weaker potency. Consider `CC[C@H](C)[C@H](NC(=O)[C@H](CCCCN)NC(=O)[C@H](C)NC(=O)[C@H](C)NC(=O)[C@H](CC(C)C)NC(=O)CNC(=O)[C@H](C)NC(=O)[C@H](CC(C)C)NC(=O)[C@@H](NC(=O)[C@@H]1CCCN1C(=O)[C@H](CC(C)C)NC(=O)[C@@H](N)Cc1ccccc1)[C@@H](C)CC)C(=O)N[C@H](C(=O)N1CCC[C@H]1C(=O)N[C@@H](CCCCN)C(=O)N[C@@H](CC(C)C)C(=O)N[C@@H](Cc1ccccc1)C(=O)N[C@H]1CSSC[C@@H](C(=O)O)NC(=O)[C@H](CCCCN)NC(=O)[C@H](CCCCN)NC(=O)[C@H]([C@@H](C)O)NC(=O)[C@H](C)NC(=O)[C@H](CC(C)C)NC1=O)C(C)C` [FLPILAGLAAKIVPKLFCLATKKC], for which the results for the MIC in assay [1] and in assay [2] were no less than 32 µM and 2 µM (≈ 5.11 µg/mL), respectively.

With `CC[C@H](C)[C@H](NC(=O)CNC(=O)[C@H](C)NC(=O)[C@@H](NC(=O)[C@H](C)NC(=O)CN)[C@@H](C)CC)C(=O)N[C@H](C(=O)N[C@H](C(=O)N[C@@H](CCCCN)C(=O)N[C@H](C(=O)N[C@@H](CCCCN)C(=O)N[C@@H](CCCCN)C(N)=O)[C@@H](C)CC)[C@@H](C)CC)[C@@H](C)CC` [GAIAGIIIKIKK], the results for the MIC in [3] and in [4] were no less than 32 µM and 64 µM (≈ 78.3 µg/mL), respectively.

Regarding `CC[C@H](C)[C@H](NC(=O)[C@H](CCCN=C(N)N)NC(=O)CNC(=O)[C@@H](NC(=O)[C@@H](NC(=O)[C@H](CCCN=C(N)N)NC(=O)[C@H](CCCCN)NC(=O)[C@H](Cc1ccccc1)NC(=O)[C@H](CCC(=O)O)NC(=O)[C@H](CCCCN)NC(=O)CN)[C@@H](C)CC)C(C)C)C(=O)N[C@@H](Cc1ccc(O)cc1)C(=O)N[C@@H](CCCN=C(N)N)C(=O)N[C@@H](CC(C)C)C(=O)N[C@@H](CS)C(=O)N[C@@H](CS)C(=O)N[C@@H](CCCN=C(N)N)C(N)=O` [GKEFKRIVGRIYRLCCR], the MIC turned out to be 8 µM (≈ 16.8 µg/mL) in assay [5]; 16 µM (≈ 33.5 µg/mL) in assay [6]; 4 µM (≈ 8.39 µg/mL) in [4]; 4 µM (≈ 8.39 µg/mL) in the assay with Escherichia coli UB1005; 16 µM (≈ 33.5 µg/mL) in [7]; 8 µM (≈ 16.8 µg/mL) in assay [8]. In addition, the minimal inhibitory concentration (MIC) in [9] turned out to be 8 µM (≈ 16.8 µg/mL); in assay [10] it was 16 µM (≈ 33.5 µg/mL); in assay [11], 8 µM (≈ 16.8 µg/mL); in [12], 16 µM (≈ 33.5 µg/mL).

With `CC[C@H](C)[C@H](NC(=O)[C@H](CCCCN)NC(=O)[C@H](CO)NC(=O)[C@H](C)NC(=O)[C@H](Cc1c[nH]c2ccccc12)NC(=O)CN)C(=O)NCC(=O)N[C@@H](CCC(N)=O)C(=O)N[C@H](C(=O)N[C@@H](CC(C)C)C(=O)NCC(=O)N[C@@H](CCCCN)C(=O)N[C@@H](CCSC)C(=O)N[C@@H](C)C(=O)N[C@@H](CCCCN)C(=O)N[C@H](C(=O)NCC(=O)N[C@@H](CC(C)C)C(=O)N[C@@H](CCC(N)=O)C(=O)N[C@@H](CCC(=O)O)C(=O)N[C@H](C(=O)N[C@H](C(=O)N[C@@H](CCC(N)=O)C(=O)N1CCC[C@H]1C(=O)N[C@@H](CCCCN)C(=O)O)[C@@H](C)CC)[C@@H](C)CC)C(C)C)[C@@H](C)O` [GWASKIGQTLGKMAKVGLQEIIQPK], the results for the MIC in assay [1] and in assay [2] were no less than 50 µM and greater than 50 µM, respectively.

For the compound `CC[C@H](C)[C@H](N)C(=O)N[C@@H](CCCN=C(N)N)C(=O)N[C@H](C(=O)N[C@@H](CCCN=C(N)N)C(=O)N[C@@H](CS)C(=O)N[C@@H](CCCN=C(N)N)C(=O)N[C@@H](CCCN=C(N)N)C(=O)N[C@@H](CCCN=C(N)N)C(=O)N[C@@H](Cc1ccccc1)C(=O)N[C@@H](CS)C(=O)N[C@@H](CCCN=C(N)N)C(=O)N[C@H](C(=O)N[C@@H](CCCN=C(N)N)C(=O)N[C@H](C(N)=O)[C@@H](C)CC)[C@@H](C)CC)[C@@H](C)CC` [IRIRCRRRFCRIRI], the MIC in assay [3] is 4 µM (≈ 7.67 µg/mL); in [5] it was 2 µM (≈ 3.83 µg/mL); in assay [13], 8 µM (≈ 15.3 µg/mL); in [7], 4 µM (≈ 7.67 µg/mL); in assay [8], 1 µM (≈ 1.92 µg/mL); in assay [9], 4 µM (≈ 7.67 µg/mL). Also, the MIC was 8 µM (≈ 15.3 µg/mL) in assay [2], 4 µM (≈ 7.67 µg/mL) in assay [10] and 4 µM (≈ 7.67 µg/mL) in assay [12].

Take `CC[C@H](C)[C@H](NC(=O)[C@H](C)NC(=O)[C@H](CC(N)=O)NC(=O)[C@@H](N)CCSC)C(=O)N[C@@H](CC(N)=O)C(=O)N[C@@H](Cc1ccccc1)C(=O)N[C@H](C(=O)N[C@@H](CS)C(=O)N[C@H](C(=O)N[C@H](C(=O)N[C@@H](Cc1cnc[nH]1)C(=O)N[C@@H](CCCCN)C(=O)N[C@@H](CCCCN)C(=O)N[C@H](C(=O)N[C@@H](C)C(=O)N[C@H](C(=O)N[C@@H](CO)C(=O)N[C@H](C(=O)O)C(C)C)[C@@H](C)CC)C(C)C)C(C)C)[C@@H](C)O)[C@@H](C)O` [MNAINFTCTVHKKVAISV]: the MIC is no less than 130 µM in assay [14] and greater than 130 µM in [2].

In the case of `NC(=O)[C@@H]1CCCN1C(=O)[C@H](CCCN=C(N)N)NC(=O)[C@@H]1CCCN1C(=O)[C@H](CCCN=C(N)N)NC(=O)[C@H](CS)NC(=O)[C@H](Cc1ccccc1)NC(=O)[C@H](CCCN=C(N)N)NC(=O)[C@H](CCCN=C(N)N)NC(=O)[C@H](CCCN=C(N)N)NC(=O)[C@H](CS)NC(=O)[C@H](CCCN=C(N)N)NC(=O)[C@@H]1CCCN1C(=O)[C@H](CCCN=C(N)N)NC(=O)[C@@H]1CCCN1` [PRPRCRRRFCRPRP], the MIC in assay [5] was 8 µM (≈ 14.8 µg/mL); in [6], greater than 128 µM; in [4] it was 16 µM (≈ 29.6 µg/mL); in assay [7] it was greater than 128 µM; in [8], no less than 128 µM; in assay [9], no less than 128 µM. Also, the MIC in [10] and in assay [12] was greater than 128 µM throughout.

As for `NC(=O)[C@H](Cc1c[nH]c2ccccc12)NC(=O)[C@H](Cc1c[nH]c2ccccc12)NC(=O)[C@H](CCCN=C(N)N)NC(=O)[C@H](CCCN=C(N)N)NC(=O)[C@H](Cc1c[nH]c2ccccc12)NC(=O)[C@H](CCCN=C(N)N)NC(=O)[C@H](CCCN=C(N)N)NC(=O)[C@H](Cc1c[nH]c2ccccc12)NC(=O)[C@H](Cc1c[nH]c2ccccc12)NC(=O)[C@@H](N)CCCN=C(N)N` [RWWRRWRRWW], the MIC in assay [15] was found to be 32 µM (≈ 55.3 µg/mL); in assay [3], 4 µM (≈ 6.92 µg/mL); in assay [6], 32 µM (≈ 55.3 µg/mL); in assay [4], 32 µM (≈ 55.3 µg/mL); in [13], 32 µM (≈ 55.3 µg/mL); in [7], 8 µM (≈ 13.8 µg/mL). The values for the MIC in assay [2] and in assay [12] were 8 µM (≈ 13.8 µg/mL) and 32 µM (≈ 55.3 µg/mL), respectively.

Consider `CC[C@H](C)[C@@H]1NC(=O)[C@H](CCCCN)NC(=O)[C@@H](NC(=O)[C@H](CO)NC(=O)[C@H](CC(C)C)NC(=O)[C@H](C)NC(=O)[C@H](CC(N)=O)NC(=O)[C@H](CC(C)C)NC(=O)[C@@H](NC(=O)[C@H](CO)NC(=O)[C@@H](NC(=O)CNC(=O)[C@H](C)NC(=O)[C@H](CO)NC(=O)[C@H](CCCCN)NC(=O)[C@H](C)NC(=O)[C@H](C)NC(=O)[C@H](CC(N)=O)NC(=O)[C@@H](NC(=O)[C@H](C)NC(=O)[C@H](CC(C)C)NC(=O)[C@H](CC(N)=O)NC(=O)[C@H](CCCCN)NC(=O)[C@H](Cc2ccccc2)NC(=O)[C@@H](NC(=O)[C@H](CC(=O)O)NC(=O)[C@H](CC(C)C)NC(=O)[C@H](CC(C)C)NC(=O)[C@@H](N)CO)[C@@H](C)O)C(C)C)C(C)C)C(C)C)CSSC[C@@H](C(=O)O)NC(=O)[C@H]([C@@H](C)O)NC(=O)[C@H](CCCN=C(N)N)NC(=O)[C@H](CO)NC1=O` [SLLDTFKNLAVNAAKSAGVSVLNALSCKISRTC], for which the MIC in assay [16] is 12.5 µM (≈ 42.4 µg/mL); in assay [14] it was no less than 50 µM; in assay [11], 100 µM (≈ 339 µg/mL); in assay [17] it was 12.5 µM (≈ 42.4 µg/mL).

In the case of `CC[C@H](C)[C@H](NC(=O)[C@H](CC(C)C)NC(=O)[C@H](CC(C)C)NC(=O)[C@H](CC(=O)O)NC(=O)[C@H](CCCCN)NC(=O)[C@@H](NC(=O)[C@@H](NC(=O)CNC(=O)[C@H](CC(C)C)NC(=O)[C@@H](NC(=O)[C@@H](N)CO)C(C)C)[C@@H](C)O)C(C)C)C(=O)NCC(=O)N[C@@H](C)C(=O)NCC(=O)N[C@@H](CCCCN)C(=O)N[C@@H](CO)C(=O)N[C@@H](C)C(=O)N[C@@H](C)C(=O)N[C@@H](CCC(N)=O)C(=O)N[C@@H](CO)C(=O)N[C@H](C(=O)N[C@@H](CC(C)C)C(=O)N[C@H](C(=O)N[C@H](C(=O)N[C@@H](CC(C)C)C(=O)N[C@@H](CO)C(=O)N[C@H]1CSSC[C@@H](C(=O)O)NC(=O)[C@H](CO)NC(=O)[C@H](CC(N)=O)NC(=O)[C@H](CO)NC(=O)[C@H](CC(C)C)NC(=O)[C@H](CCCCN)NC1=O)[C@@H](C)O)[C@@H](C)O)C(C)C` [SVLGTVKDLLIGAGKSAAQSVLTTLSCKLSNSC], the figures for the MIC in assay [14] and in assay [17] were no less than 50 µM and 25 µM (≈ 81.6 µg/mL), respectively.
